From the supplement of paper PMC7806825 come the findings set out here.

The first data set deals with McpC ligand-binding domain (Salmonella Typhimurium SL1344). Briefly: protein melting temperature (Tm) in presence of compound (degrees C); higher = more thermal stabilisation (possible ligand binding). The note with it: Biolog plate: PM01; compound stock concentration: 10-20 mM, 2 uL in 10 uL reaction.
As to `Nc1ncnc2c1ncn2[C@@H]1O[C@H](CO)[C@@H](O)[C@H]1O` [Adenosine], the protein melting temperature came to 43.8.
The same measure, in the same setting: under `OCC(O)C(O)C(O)CO` (stereo unspecified) [Adonitol] stands 44.8.
The same measure, in the same setting: under `C[C@H](N)C(=O)NCC(=O)O` [Ala-Gly] stands 44.9; under `O=C(O)CC(Br)C(=O)O` (stereo unspecified) [Bromosuccinic acid], 44.8.

The same data set, now with this note: Biolog plate: PM02A; compound stock concentration: 10-20 mM, 2 uL in 10 uL reaction.
Consider `N#C[C@H](O[C@@H]1O[C@H](CO[C@@H]2O[C@H](CO)[C@@H](O)[C@H](O)[C@H]2O)[C@@H](O)[C@H](O)[C@H]1O)c1ccccc1` [Amygdalin], for which the protein melting temperature turned out to be 44.3.
On the same count and under the same terms, under `OC[C@H]1O[C@@H](Oc2ccc(O)cc2)[C@H](O)[C@@H](O)[C@@H]1O` [Arbutin] stands 43.7; under `CCCCCCCCCC(=O)O` [Capric acid], 42.4.
Same read-out and setting: then `CCCCCC(=O)O` [Caproic acid], with 43.3; and `C/C(=C/C(=O)O)C(=O)O` [Citraconic acid], with 43.7; and `CC(O)(CC(=O)O)C(=O)O` (stereo unspecified) [Citramalic acid], with 44.1.

The data set is the same for the next values; noted with them: Biolog plate: PM03B; compound stock concentration: 10-20 mM, 2 uL in 10 uL reaction.
As to `Nc1[nH]cnc2ncnc1-2` [Adenine], the protein melting temperature turned out to be 45.2.
On the same count and under the same terms, under `Nc1ncnc2c1ncn2[C@@H]1O[C@H](CO)[C@@H](O)[C@H]1O` [Adenosine] stands 45.4.
Turning to `NCCCCN=C(N)N` [Agmatine], the protein melting temperature turned out to be 44.1.
Same read-out and setting: then `C[C@H](N)C(=O)N[C@@H](CC(=O)O)C(=O)O` [Ala-Asp], with 45.
`C[C@H](N)C(=O)N[C@@H](CCC(N)=O)C(=O)O` [Ala-Gln]: the protein melting temperature came out at 45.1.
The same measure, in the same setting: under `C[C@H](N)C(=O)N[C@@H](CCC(=O)O)C(=O)O` [Ala-Glu] stands 45.2.
The same measure, in the same setting: then `C[C@H](N)C(=O)NCC(=O)O` [Ala-Gly], with 45.2; and `C[C@H](N)C(=O)N[C@@H](Cc1cnc[nH]1)C(=O)O` [Ala-His], with 45.3.
For `C[C@H](N)C(=O)N[C@H](C(=O)O)[C@@H](C)O` [Ala-Thr], the protein melting temperature was 45.1.
With `NC(=O)NC1NC(=O)NC1=O` (stereo unspecified) [Allantoin], the protein melting temperature worked out at 44.2.
On the same count and under the same terms, then `O=C1NC(=O)C(=O)C(=O)N1` [Alloxan], with 44.3; and `NC(=O)NC(N)=O` [Biuret], with 44.2.

Staying with this data set, now noted: Biolog plate: PM04A; compound stock concentration: 10-20 mM, 2 uL in 10 uL reaction.
Consider `Nc1ncnc2c1ncn2[C@@H]1O[C@H](CO)[C@@H](O)[C@H]1OP(=O)(O)O` [Adenosine 2`-Monophosphate], for which the protein melting temperature stood at 43.8.
Same read-out and setting: then `Nc1ncnc2c1ncn2[C@@H]1O[C@@H]2COP(=O)(O)O[C@H]2[C@H]1O` [Adenosine 3`,5`-Cyclic Monophosphate], with 43.9.
The same measure, in the same setting: then `Nc1ncnc2c1ncn2[C@@H]1O[C@H](CO)[C@@H](OP(=O)(O)O)[C@H]1O` [Adenosine 3`-Monophosphate], with 44.2.
As to `Nc1ncnc2c1ncn2[C@@H]1O[C@H](COP(=O)(O)O)[C@@H](O)[C@H]1O` [Adenosine 5`-Monophosphate], the protein melting temperature was 43.9.
Same read-out and setting: then `CCCCS(=O)(=O)O` [Butane Sulfonic acid], with 44.4; and `NC(=O)OP(=O)(O)O` [Carbamyl Phosphate], with 44.7.
Turning to `N[C@@H](CS)C(=O)NCC(=O)O` [Cys-Gly], the protein melting temperature turned out to be 42.9.
On the same count and under the same terms, under `NCCS` [Cysteamine] stands 42.8.
Still for that read-out and setting: under `Nc1ccn([C@@H]2O[C@H](CO)[C@@H](O)[C@H]2OP(=O)(O)O)c(=O)n1` [Cytidine 2`-Monophosphate] stands 43.7.
Same read-out and setting: under `Nc1ccn([C@@H]2O[C@H](CO)[C@@H](OP(=O)(O)O)[C@H]2O)c(=O)n1` [Cytidine 3`-Monophosphate] stands 45.4.

The data set is the same for the next values; noted with them: Biolog plate: PM05; compound stock concentration: 10-20 mM, 2 uL in 10 uL reaction.
Consider `Nc1[nH]cnc2ncnc1-2` [Adenine], for which the protein melting temperature stood at 44.1.
Still for that read-out and setting: under `Nc1ncnc2c1ncn2[C@@H]1O[C@@H]2COP(=O)(O)O[C@H]2[C@H]1O` [Adenosine 3`,5`-Cyclic Monophosphate] stands 44.4; under `Nc1ncnc2c1ncn2[C@@H]1O[C@H](CO)[C@@H](O)[C@H]1O` [Adenosine], 44.1.
Still for that read-out and setting: under `C[N+](C)(C)CCO` [Choline] stands 43.1.
